From article PMC7143261 (Foods, 2020)

Columns and labels:
[1] = Pharmacokinetic study of plasma melatonin after single oral dose of lentil sprouts extract
Source text: (§2) The area under the curve (AUC) is the integral of the plasma concentration of an altered drug against an interval of definite time. Pharmacokinetic parameters including plasma elimination rate constant (Ke), elimination half-life (t1/2), time to reach measured maximum plasma concentration (Tmax), measured maximum plasma concentration (Cmax), area under the plasma concentration-time curve from the time zero to the time of last quantifiable concentration (AUC0–t), area under the plasma concentration-time curve from time zero to infinity (AUC0–∞), area under the plasma (first) moment concentration-time curve from time zero to infinity (AUMC0–∞), mean residence time (MRT), volume of distribution (VD/F), and clearance (Cl/F) were determined by noncompartmental methods.

[2] = Plasmatic antioxidant capacity by ORAC after treatment; assay type: in vivo, Sprague Dawley rats; conditions: 90 min after oral 50 µg synthetic melatonin/kg
Experimental: (§1) Phytochemicals and metabolites were isolated using SPE.
The above plasma samples were used to determine the radical scavenging activity via the ORAC method using fluorescein as a fluorescence probe. The assay was performed at 37 °C in 75 mM phosphate buffer (pH 7.4). The reaction mixture (200 μL) contained fluorescein (70 nM), 2,2-azobis (2-methyl-propionamidine)-dihydrochloride (12 mM), and samples (Trolox or samples). Fluorescence was read at 485/520 nm, excitation/emission, respectively. Black 96-well untreated microplates (PS Balck, Porvair, Leatherhead, UK) were used. The fluorescence signal was measured every minute for 80 min after automatic shaking. All reaction mixtures were prepared in triplicate, running them at least three times independently. Fluorescence was normalized to the oxidation control (phosphate buffer) and stability control (no antioxidant). The ORAC values were expressed as mM Trolox equivalents (mM TE) according to the protocol previously described.

[3] = Plasmatic antioxidant capacity by FRAP after treatment; assay type: in vivo, Sprague Dawley rats; conditions: 90 min after oral 50 µg melatonin/kg
Experimental: as §1
The plasma samples were also used to assess the reducing antioxidant potential using the FRAP assay, as previously described. Briefly, 300 μL of a working FRAP reagent [acetate buffer 0.3 M pH 3.6, 10 mM TPTZ in 40 mM HCl and 20 mM FeCl3·6H2O (10:1:1) (v/v/v)] were tempered to 37 °C, and then 10 μL of plasma samples were added. The absorbance was taken at 593 nm against reagent blank after 10 min. FRAP values were calculated and reported as µM Trolox equivalents (µM TE).

[4] = Bioavailability study: plasmatic melatonin 90 min after treatment (ELISA); conditions: 90 min after oral 50 µg synthetic melatonin/kg
Experimental: Each of the four groups (10 rats) was administered the treatment and sacrificed on a different day. […] The administration was performed through a gavage using a suitable intubation cannula. After that, the rats were individually caged, and a cling film was placed below the cage to obtain the urine samples. After 90 min of extract administration, all rat groups were anesthetized by CO2. Urine was collected from the cling film with a pipette and transferred to a vial. […] The blood was collected by cardiac puncture, transferred to vials containing 5% heparin, and centrifuged at 4 °C for 15 min at 2100 g. […] Phytochemicals and metabolites were isolated using SPE. First, plasma and urine samples were centrifuged at 15000 g for 4 min at 4 °C. Then, samples were filtered using C18 SPE cartridges (Waters, Cerdanyola del Vallès, Spain). Finally, the eluted obtained fractions were evaporated to dryness (Speed Vac SC 200, Savant Instruments, Farmingdale, NY, USA) and reconstituted before being assayed.

[5] = cited from earlier work
[6] = in vivo; conditions: Sprague Dawley, rat, plasma, po, 50 ug/kg
Source text: as §2

[7] = Plasma total phenolic compounds (Folin-Ciocalteu) after treatment; assay type: in vivo, Sprague Dawley rats; conditions: 90 min posttreatment, 50 µg melatonin/kg
Experimental: as §1
Samples (10 μL) were added to 150 μL of Folin-Ciocalteu reagent (diluted 1:15, v/v in Milli-Q water). After exactly 3 min, 20% Na2CO3 (50 μL) was added to each well. After 120 min at room temperature, the absorbance of the blue complex was measured at 760 nm using a microplate reader. The concentration of total phenolic compounds was expressed as mg GAE/mL.

[8] = Plasmatic serotonin after treatment (ELISA); assay type: in vivo, Sprague Dawley rats; conditions: 90 min after oral 50 µg melatonin/kg
[9] = Sprague Dawley, rat, plasma, po, 50 ug/kg
[10] = oral lentil sprouts, 50 µg melatonin/kg

Structure (SMILES): COc1ccc2[nH]cc(CCNC(C)=O)c2c1 [melatonin, N-acetyl-5-methoxytryptamine]
- half-life ([1]; Sprague Dawley, rat, in vivo, po, 50 ug/kg): 1.82 ± 0.217 h
- CL/F [1, 9]: 330 L/h/kg
- half-life [1, 9]: ~1.67 h
- k el [1, 9]: 0.000108 s⁻¹
- MRT inf ([1]; Sprague Dawley, rat, plasma, po, 50 ug/kg, MRT 0-∞, oral lentil sprouts, 50 µg melatonin/kg): ~3.33 h
- time of maximum plasma melatonin concentration postadministration ([1]; oral lentil sprouts extract, 50 µg melatonin/kg): 1.5 h
- AUC 0-t /dose [1, 10]: 131.2 ± 19.3 (pg/mL min)/(μg/kg)
- AUC 0-∞ [1, 10]: 9381 ± 2008 pg·min/mL
- AUMC 0-∞ [1, 10]: 1897356 ± 589030 pg/mL min^2
- Cl/F [1, 10]: 0.33 ± 0.07 (μg/kg)/(pg/mL)/h
- MRT 0-∞ [1, 10]: 3.323 ± 0.33 h
- VD/F [1, 10]: 0.85 ± 0.08 (μg/kg)/(pg/mL)
- volume of distribution (VD/F) [1, 10]: 0.85 L/g
- AUC 0-t ([1]; oral lentil sprouts, 50 µg melatonin/kg, 0-240 min): 6560 ± 963 pg·min/mL
- increment of plasmatic antioxidant capacity (ORAC) vs the fasting group [2]: 32%
- increase of plasmatic antioxidant capacity (FRAP) [3]: 4%
- plasmatic melatonin concentration lower than that of the Lentil Sprouts group [4]: 22%
- time of absorption in the gastrointestinal tract post-oral administration [5]: 45 min
- Cmax [6]: 0.0454 ± 0.0035 ng/mL
- Tmax [6]: 1.5 h
- change of TPC concentration in plasma [7]: nonsignificant
- enhancement of plasmatic serotonin concentration in contrast to the Fasting group [8]: 2.7 fold
